The values that follow come from PMC9822021, “Biological Activity of Amidino-Substituted Imidazo [4,5-b]pyridines” (Molecules, 2022).

Some results are limits rather than exact numbers.

One series relates to HCoV OC43. The series is described as follows: Antiviral CPE reduction assay. Conditions: Betacoronavirus 1, OC43, HEL 299 cells. The format is cell-based, human coronavirus OC43.
`Cl.N=C(N)c1ccc(-c2nc3ncc(Br)cc3[nH]2)cc1` [Compound 10, 4-(6-Bromo-1H-imidazo[4,5-b]pyridin-2-yl)benzimidamide Hydrochloride] showed an EC50 of over 100 µM.

A further series has as its system Sindbis. The series is described as follows: Antiviral CPE reduction assay. Conditions: Sindbis virus, Huh-7, Huh7 cells. The format is cell-based.
As for `Cl.N=C(N)c1ccc(-c2nc3ncc(Br)cc3[nH]2)cc1` [Compound 10, 4-(6-Bromo-1H-imidazo[4,5-b]pyridin-2-yl)benzimidamide Hydrochloride], the EC50 is over 100 µM.

For a further series, the system named is Influenza B (B/Ned/537/05). The series is described as follows: Antiviral CPE reduction assay. The format is cell-based. The conditions noted are these: Influenza B virus, MDCK cells.
`Cl.N=C(N)c1ccc(-c2nc3ncc(Br)cc3[nH]2)cc1` [Compound 10, 4-(6-Bromo-1H-imidazo[4,5-b]pyridin-2-yl)benzimidamide Hydrochloride] showed an EC50 of 94 ± 5.2 µM.

Another series deals with Influenza H1N1 (A/Ned/378/05). The experiment in a line: Antiviral CPE reduction assay. The format is cell-based. Conditions: Influenza A virus, MDCK cells.
As for `Cl.N=C(N)c1ccc(-c2nc3ncc(Br)cc3[nH]2)cc1` [Compound 10, 4-(6-Bromo-1H-imidazo[4,5-b]pyridin-2-yl)benzimidamide Hydrochloride], the EC50 turned out to be 71.4 ± 24.3 µM.

A further series concerns HSV-1 KOS. The series is described as follows: Antiviral CPE reduction assay. Type of series: cell-based, herpes simplex virus-1. Conditions: Human alphaherpesvirus 1.
Compound `Cl.N=C(N)c1ccc(-c2nc3ncc(Br)cc3[nH]2)cc1` [Compound 10, 4-(6-Bromo-1H-imidazo[4,5-b]pyridin-2-yl)benzimidamide Hydrochloride] came in with a 50% effective concentration (EC50) of over 100 µM.

For a further series, the system named is DND-41 acute lymphoblastic leukemia cells. The experiment in a line: In vitro antiproliferative activity, MTS proliferation assay. Type of series: cell-based. Conditions: Homo sapiens, DND41, 72 h. How it is done: (§1) Culture media were purchased from Gibco Life Technologies, USA, and supplemented with 10% fetal bovine serum (HyClone, GE Healthcare Life Sciences, Chicago, IL, USA), except for the media for SW620, PC3 and HeLa cells, which were purchased from Sigma.
(§2) Cells were incubated for 72 h with compounds and were then analyzed using the CellTiter 96® AQueous One Solution Cell Proliferation Assay (MTS) reagent (Promega) according to the manufacturer’s instructions. […] Compounds were tested in two independent experiments. SW620, PC3 and HeLa cells were seeded in 96-well microtiter plates at 1 × 10^4 to 3 × 10^4 cells/mL, depending on the doubling times of the specific cell line. Test agents were then added in five 10-fold dilutions (10^−8 to 10^−4 M). Working dilutions were freshly prepared on the day of testing. After 72 h of incubation, the cell growth rate was evaluated using the MTT assay as described previously. […] Each test was performed in quadruplicate in at least two individual experiments.
`Cl.N=C(N)c1ccc(-c2nc3ncc(Br)cc3[nH]2)cc1` [Compound 10, 4-(6-Bromo-1H-imidazo[4,5-b]pyridin-2-yl)benzimidamide Hydrochloride]: the IC50 was over 100 µM.

The subject of another series is Capan-1 pancreatic adenocarcinoma cells. Described as above. Type of series: cell-based. Conditions: Homo sapiens, 72 h. How it is done: as §1, §2
Consider `Cl.N=C(N)c1ccc(-c2nc3ncc(Br)cc3[nH]2)cc1` [Compound 10, 4-(6-Bromo-1H-imidazo[4,5-b]pyridin-2-yl)benzimidamide Hydrochloride], for which the half-inhibitory concentration (IC50) is over 100 µM.

In a further series the test system is HL-60 acute myeloid leukemia cells. Described as above. The format is cell-based. The conditions noted are these: Homo sapiens, 72 h. As to the method: as §1, §2
In turn, `Cl.N=C(N)c1ccc(-c2nc3ncc(Br)cc3[nH]2)cc1` [Compound 10, 4-(6-Bromo-1H-imidazo[4,5-b]pyridin-2-yl)benzimidamide Hydrochloride] yielded an IC50 of over 100 µM.

The subject of the next series is Z-138 non-Hodgkin lymphoma cells. The series is described as above. Type of series: cell-based, human. The conditions noted are these: Homo sapiens, Z-138, 72 h. An excerpt:
(§3) Human cancer cell lines used in this manuscript, namely Capan-1, HCT-116, NCI-H460, LN-229, HL-60, K-562, Z-138, SW620, PC3 and HeLa, were acquired from the American Type Culture Collection (ATCC, Manassas, VA, USA), while the DND-41 cell line was purchased from the Deutsche Sammlung von Mikroorganismen und Zellkulturen (DSMZ Leibniz-Institut, Germany). Culture media were purchased from Gibco Life Technologies, USA, and supplemented with 10% fetal bovine serum (HyClone, GE Healthcare Life Sciences, Chicago, IL, USA), except for the media for SW620, PC3 and HeLa cells, which were purchased from Sigma.
(§4) Adherent cell lines LN-229, HCT-116, NCI-H460 and Capan-1 cells were seeded at a density between 500 and 1500 cells per well in 384-well tissue culture plates (Greiner). […]. Cells were incubated for 72 h with compounds and were then analyzed using the CellTiter 96® AQueous One Solution Cell Proliferation Assay (MTS) reagent (Promega) according to the manufacturer’s instructions. Absorbance of the samples was measured at 490 nm using a SpectraMax Plus 384 (Molecular Devices), and OD values were used to calculate the 50% inhibitory concentration (IC50). Compounds were tested in two independent experiments. SW620, PC3 and HeLa cells were seeded in 96-well microtiter plates at 1 × 10^4 to 3 × 10^4 cells/mL, depending on the doubling times of the specific cell line. Test agents were then added in five 10-fold dilutions (10^−8 to 10^−4 M). Working dilutions were freshly prepared on the day of testing. After 72 h of incubation, the cell growth rate was evaluated using the MTT assay as described previously. Absorbance of the samples was measured at 570 nm, and OD values were used to calculate the 50% inhibitory concentration (IC50). Each test was performed in quadruplicate in at least two individual experiments.
In turn, `Cl.N=C(N)c1ccc(-c2nc3ncc(Br)cc3[nH]2)cc1` [Compound 10, 4-(6-Bromo-1H-imidazo[4,5-b]pyridin-2-yl)benzimidamide Hydrochloride] registered an IC50 of over 100 µM.

The next series has as its system HCoV NL63. The series is described as follows: Antiviral CPE reduction assay. The format is cell-based. Conditions: Human coronavirus NL63, Huh-7, Huh7 cells.
For the compound `Cl.N=C(N)c1ccc(-c2nc3ncc(Br)cc3[nH]2)cc1` [Compound 10, 4-(6-Bromo-1H-imidazo[4,5-b]pyridin-2-yl)benzimidamide Hydrochloride], the EC50 was over 100 µM.

Tested on in the next series: not listed separately
The experiment in a line: in vitro. The conditions noted are these: human.
`Cl.N=C(N)c1ccc(-c2nc3ncc(Br)cc3[nH]2)cc1` [Compound 10, 4-(6-Bromo-1H-imidazo[4,5-b]pyridin-2-yl)benzimidamide Hydrochloride] showed a CC50 of over 100 µM.

Tested on in another series: not given
Assay: not given
Conditions: not given
With `Cl.N=C(N)c1ccc(-c2nc3ncc(Br)cc3[nH]2)cc1` [Compound 10, 4-(6-Bromo-1H-imidazo[4,5-b]pyridin-2-yl)benzimidamide Hydrochloride], the melting point is over 300 °C.

Tested on in the next series: not listed separately
The series is described as follows: in vitro. Conditions: dog.
`Cl.N=C(N)c1ccc(-c2nc3ncc(Br)cc3[nH]2)cc1` [Compound 10, 4-(6-Bromo-1H-imidazo[4,5-b]pyridin-2-yl)benzimidamide Hydrochloride]: the CC50 is over 100 µM.

The next series relates to YFV 17D. The series is described as follows: microbe, parasite or virus in culture. The format is cell-based. The conditions noted are these: Yellow fever virus, Huh-7, read-out: EC50 YFV 17D Huh7.
As to `Cl.N=C(N)c1ccc(-c2nc3ncc(Br)cc3[nH]2)cc1` [Compound 10, 4-(6-Bromo-1H-imidazo[4,5-b]pyridin-2-yl)benzimidamide Hydrochloride], the 50% effective concentration (EC50) was over 100 µM.

The subject of the next series is LN-229 glioblastoma cells. The experiment in a line: In vitro antiproliferative activity, MTS proliferation assay. Conditions: Homo sapiens, 72 h. The format is cell-based.
Source text: as §3, §4
`Cl.N=C(N)c1ccc(-c2nc3ncc(Br)cc3[nH]2)cc1` [Compound 10, 4-(6-Bromo-1H-imidazo[4,5-b]pyridin-2-yl)benzimidamide Hydrochloride]: the IC50 was over 100 µM.
